{
  "source": "patent US11253519B2",
  "about": "“Composition used to improve symptoms of autism spectrum disorder, and method using same for improving symptoms of autism spectrum disorder” (RENASCIENCE CO., LTD., priority 2016, dated 2022)",
  "format_in_all_cases": "in vivo, human",
  "key": {"ASD patient [1]": {"tested_on": "ASD patient", "experiment": "PARS-TR rating (items 25 to 57, each 0 none, 1 somewhat noticeable, 2 noticeable) in ASD patients before and after intake", "description": "PARS (Pervasive Developmental Disorder Autism Society Japan Rating Scale) is a scale composed of 57 items to determine the characteristics in pervasive developmental disorder (PDD) (which may hereinafter also simply be referred to as “PDD”), and to evaluate the support difficulty by interviewing the mothers of the subjects (or other rearer, if it is difficult to obtain information from the mother of a subject); PARS-TR is its revised version. The revised version contains revised wording of the commentary of question items, while maintaining the reliability and validity of the rating scale of the former PARS. On a side note, question items and rating in PARS-TR, PARS-TR items rated for each age group, a score calculation method, and an ASD characteristics test method are detailed in PARS-TR PARS Text Revision (written and edited by Hattatsu Shogai Shien no tameno Hyoka Kenkyu Kai [Study of the Assessment for Supporting Developmental Disorder], a general incorporated association, Spectrum Publishing Company), the disclosure of which is incorporated herein by reference.\nFIG. 3 illustrates 57 rating items prescribed in PARS-TR. The rating items vary depending on the age group of targets for diagnosis (children before school age (early childhood), elementary school students (childhood), and junior high-school students or older subjects (early adolescence or adulthood)). Items 1 to 34 are directed to those in early childhood. Items 1 to 34 are intended to assess the peak in early childhood (assessment for most noticeable symptoms in early childhood) of all subjects (children before school age, elementary school students, and junior high-school students or older subjects), and also to assess the current condition of subjects in early childhood. Peak assessment and current condition assessment are performed for young children because, for example, clear autistic symptoms before the age of 4 years may be alleviated after age 5. Young children are not assessed by items 35 to 57. Elementary school students are assessed by items 1 to 34 for early childhood to determine the peak in early childhood, and items 21 to 53 for childhood to determine the current condition. Junior high-school students or older subjects are assessed by the 34 items for early childhood to determine the peak in early childhood, and items 25 to 57 for early adolescence or adulthood to determine the current condition. The specific evaluation method is described in detail in Example 2.\nAssessment by PARS-TR is performed by questioning the mother or someone else regarding the severity of symptoms concerning development and behaviors described in rating items in terms of “assessment of the peak in early childhood” and “assessment of the current condition,” and the answer was classified into the following 3 levels and assessed: “0=none (no symptoms asked were observed/no),” “1=somewhat noticeable (symptoms asked were sometimes (somewhat) observed/yes),” and “2=noticeable (symptoms asked were often (quite) observed/yes).” The PARS-TR score is a value determined by simply summing up the assessment score of each item, excluding items that cannot be assessed. Specifically, the cutoff value at which the subject is diagnosed with PDD is score 9 in early childhood, score 13 in childhood, and score 20 in early adolescence or adulthood.\n[…] The total scores were compared.\n(§1) The symptoms of ASD of the ASD patient were assessed based on the scores of ABC-J, PARS-TR, and RSB-R (Japanese version) by a medical doctor who is a researcher of ASD."}, "ASD patient [2]": {"tested_on": "ASD patient", "experiment": "RSB-R (Repetitive Behavior Scale-Revised, Japanese version, 43 items, 6 subscales) in ASD patients before and after intake", "conditions": "800 mg/day oral + fursultiamine 25 mg/day, 8 weeks after the intake", "description": "RSB-R is composed of 6 subscales (I. Stereotypical Behavior, II. Self-Harming Behavior, III. Obsessive-Compulsive Behavior, IV. Ritualized Behavior, V. Insistence on Sameness, and VI. Circumscribed Interests) and 43 items. RSB-R (Japanese version) is a Japanese version of RBS-R, which is a rating scale used worldwide, and whose validity has already been verified (Inada et al., Research in Autism Spectrum Disorders, Vol. 15-16, July 2015, pp. 60-68; Inada et al., Study on reliability and validity of the Japanese version of Repetitive Behaviors Scale—Revised (RBS-R), The Japanese Journal of Developmental Psychology, 2012, Vol. 23, No. 2, pp. 123-133). FIG. 4 illustrates 43 items of RSB-R (including 6 subscales), and the relation between the 43 items of RSB-R and diagnostic criteria A and B of DSM-5.\nas §1\nThe ASD symptoms of the ASD patient were assessed based on the scores in ABC-J and RSB-R (Japanese version) by a medical doctor who is a researcher of ASD."}, "[3]": {"experiment": "Vitamin B1 level in whole blood, serum pyridoxamine and pyridoxal levels and Wernicke's encephalopathy in two test subjects on pyridoxamine medication"}, "[4]": {"experiment": "Plasma kinetics of pyridoxamine and metabolites in healthy male adults (LC-MS-MS)", "description": "Rather, in blood, the pyridoxal level was higher than the pyridoxamine level. […] The observation results were obtained in a clinical trial performed by collaborators of the applicant of this application, and are shown here simply for reference."}, "[5]": {"conditions": "case 2, 600 mg/day oral + fursultiamine 25 mg/day, 17 Days After Administration, Before Administration: 0"}, "[6]": {"conditions": "case 2, 600 mg/day oral + fursultiamine 25 mg/day, 17 Days After Administration, Before Administration: 1"}, "[7]": {"conditions": "case 2, 600 mg/day oral + fursultiamine 25 mg/day, 17 Days After Administration, Before Administration: 2"}, "[8]": {"conditions": "case 3, 800 mg/day oral + fursultiamine 25 mg/day, 8 weeks after the intake, before intake: rating 1"}},
  "data": [
    {"smiles": "Cc1ncc(CO)c(CN)c1O.Cl.Cl", "note": "[pyridoxamine dihydrochloride]", "values": [
      {"measurement": "PARS-TR item 27: Having negative lifestyle habits, and being incapable of living independently", "setting": "ASD patient [1]; [5]", "value": 0},
      {"measurement": "PARS-TR item 29: Showing extreme pickiness in food, with no extremely narrow range of food choice", "setting": "ASD patient [1]; [5]", "value": 0},
      {"measurement": "PARS-TR item 31: Being insensitive or sensitive to pain or heat", "setting": "ASD patient [1]; [5]", "value": 0},
      {"measurement": "PARS-TR item 32: Being terrified of nothing", "setting": "ASD patient [1]; [5]", "value": 0},
      {"measurement": "PARS-TR item 34: Showing self-harming behaviors, such as hitting the head on the wall or biting the hand", "setting": "ASD patient [1]; [5]", "value": 0},
      {"measurement": "PARS-TR item 39: Having difficulty understanding what is said from one situation to another", "setting": "ASD patient [1]; [5]", "value": 0},
      {"measurement": "PARS-TR item 40: Using big words, but not fully understanding the meaning thereof", "setting": "ASD patient [1]; [5]", "value": 0},
      {"measurement": "PARS-TR item 41: Difficulty understanding who is talking to who in a large group conversation", "setting": "ASD patient [1]; [5]", "value": 0},
      {"measurement": "PARS-TR item 42: Being incapable of explaining how and why", "setting": "ASD patient [1]; [5]", "value": 0},
      {"measurement": "PARS-TR item 47: Enacting a familiar scene from a TV show alone", "setting": "ASD patient [1]; [5]", "value": 0},
      {"measurement": "PARS-TR item 48: Persistently and repeatedly harassing someone on purpose", "setting": "ASD patient [1]; [5]", "value": 0},
      {"measurement": "PARS-TR item 49: Always wanting to be the best", "setting": "ASD patient [1]; [5]", "value": 0},
      {"measurement": "PARS-TR item 50: Showing tic symptoms (e.g., blinking, head movements, abuseful language)", "setting": "ASD patient [1]; [5]", "value": 0},
      {"measurement": "PARS-TR item 51: Being restless in a manner inappropriate for the context", "setting": "ASD patient [1]; [5]", "value": 0},
      {"measurement": "PARS-TR item 53: Showing behavioral arrest, and becoming incapable of moving to the next act fo frozen", "setting": "ASD patient [1]; [5]", "value": 0},
      {"measurement": "PARS-TR item 25: Persistently asking the same question", "setting": "ASD patient [1]; [6]", "value": 0},
      {"measurement": "PARS-TR item 26: Showing confusion when regular daily routine of procedures suddnly change", "setting": "ASD patient [1]; [6]", "value": 1},
      {"measurement": "PARS-TR item 33: Suddenly crying or becoming upset", "setting": "ASD patient [1]; [6]", "value": 0},
      {"measurement": "PARS-TR item 36: Showing self-centered behaviors without regard for surrounding people", "setting": "ASD patient [1]; [6]", "value": 0},
      {"measurement": "PARS-TR item 37: Showing interactive behaviors inappropriate for the context when approached by someone", "setting": "ASD patient [1]; [6]", "value": 1},
      {"measurement": "PARS-TR item 38: Interacting with others only when having a request", "setting": "ASD patient [1]; [6]", "value": 0},
      {"measurement": "PARS-TR item 43: Speaking in a unnatural and monotonous tone", "setting": "ASD patient [1]; [6]", "value": 1},
      {"measurement": "PARS-TR item 44: Having difficulty understanding another person's feeling or point of view", "setting": "ASD patient [1]; [6]", "value": 0},
      {"measurement": "PARS-TR item 45: Having difficulty understanding jokes and irony, and interpreting them literally", "setting": "ASD patient [1]; [6]", "value": 1},
      {"measurement": "PARS-TR item 52: Being very careless, unable to behave appropriately for the context", "setting": "ASD patient [1]; [6]", "value": 0},
      {"measurement": "PARS-TR item 54: Appearing unashamed", "setting": "ASD patient [1]; [6]", "value": 1},
      {"measurement": "PARS-TR item 55: Being easily deceived", "setting": "ASD patient [1]; [6]", "value": 1},
      {"measurement": "PARS-TR item 56: Being likely to feel victimized, suspicious, or aggressive", "setting": "ASD patient [1]; [6]", "value": 0},
      {"measurement": "PARS-TR item 57: Being emotionally unstable, and showing frequent emotional ups and downs", "setting": "ASD patient [1]; [6]", "value": 0},
      {"measurement": "PARS-TR item 28: Becoming mentally unstable when recalling bad events in the past", "setting": "ASD patient [1]; [7]", "value": 1},
      {"measurement": "PARS-TR item 30: Being disgusted with a particular sound", "setting": "ASD patient [1]; [7]", "value": 1},
      {"measurement": "PARS-TR item 46: Being keen on acquiring knowledge in a particular field, such as the names of places or train stations", "setting": "ASD patient [1]; [7]", "value": 1},
      {"measurement": "PARS-TR Total Score of Items 25 to 57", "setting": "ASD patient [1]; case 2, 600 mg/day oral + fursultiamine 25 mg/day, 17 Days After Administration, Before Administration: 22, cutoff 20 or more", "value": 11},
      {"measurement": "severity of hypersensibility", "setting": "ASD patient [1]; case 3, 800 mg/day oral + fursultiamine 25 mg/day, 8 weeks", "value": "lowered the severity of hypersensibility"},
      {"measurement": "PARS-TR item 31 rating (insensitive to pain)", "setting": "ASD patient [1]; [8]", "value": 1},
      {"measurement": "PARS-TR item 32 rating (frightened by wipers, ceiling fan)", "setting": "ASD patient [1]; [8]", "value": 0},
      {"measurement": "PARS-TR item 30 rating (hyperacusis)", "setting": "ASD patient [1]; case 3, 800 mg/day oral + fursultiamine 25 mg/day, 8 weeks after the intake, before intake: rating 2", "value": 1},
      {"measurement": "PARS-TR current score in early adolescence or adulthood", "setting": "ASD patient [1]; case 3, 800 mg/day oral + fursultiamine 25 mg/day, 18 weeks after the intake, before intake: 21, cutoff score 20", "value": 14},
      {"measurement": "RBS-R total score for each subscale compared with before the intake", "setting": "ASD patient [2]; case 3, 6 subscales, FIG. 8B", "value": "significant decrease"},
      {"measurement": "RBS-R total score compared with before the intake", "setting": "ASD patient [2]; case 3, FIG. 8A", "value": "significant decrease"},
      {"measurement": "total score of all items in RBS-R compared with before the intake", "setting": "ASD patient [2]; case 4, FIG. 10A", "value": "significantly decreased"},
      {"measurement": "RBS-R total score of subscale items (Stereotypical Behavior, Self-Harming Behavior, Obsessive-Compulsive Behavior, Insistence on Sameness)", "setting": "ASD patient [2]; case 4, FIG. 10B", "value": "significantly decreased"},
      {"measurement": "concentration at 4 weeks", "setting": "[3]; human, serum, oral, subject ID No. 3, 4 weeks after start of administration", "value": 1540, "unit": "ng/mL"},
      {"measurement": "concentration at 12 weeks", "setting": "[3]; human, serum, oral, subject ID No. 3, 12 weeks after start, with fursultiamine 75 mg/day", "value": 23.2, "unit": "ng/mL"},
      {"measurement": "concentration at 8 weeks", "setting": "[3]; human, serum, oral, subject ID No. 6, 8 weeks after start of administration", "value": 421, "unit": "ng/mL"},
      {"measurement": "concentration at 11 weeks", "setting": "[3]; human, serum, oral, subject ID No. 6, 11 weeks after start, with fursultiamine", "value": 140, "unit": "ng/mL"},
      {"measurement": "brain MRI finding during medication", "setting": "[3]; subject ID No. 3, 6 weeks after start of administration, epilepsy-like symptom", "value": "sign suggestive of Wernicke's encephalopathy"},
      {"measurement": "brain MRI finding during medication", "setting": "[3]; subject ID No. 6, 9 weeks after start of administration", "value": "signs suggestive of Wernicke's encephalopathy"},
      {"measurement": "plasma levels of pyridoxamine, pyridoxal, and 4-pyridoxic acid versus dose", "setting": "[4]; 300, 600, 900 mg/dose oral", "value": "increased along with the increase in dose"},
      {"measurement": "time to peak plasma level of pyridoxamine (unchanged substance)", "setting": "[4]; 300, 600 or 900 mg/dose oral at 0, 6 and 12 hours, trial by collaborators of the applicant", "value": 3, "unit": "h"},
      {"measurement": "plasma pyridoxine (PN) level", "setting": "[4]; 300, 600 or 900 mg/dose oral, FIG. 14B", "value": "did not show any substantial change"}
    ]}
  ]
}
